Experiments:
cGAS [1] = biological target: T1, cGAS (Homo sapiens, UniProt Q8N884); experiment: Cellular assay to measure cGAS activity (IFNb AlphaLISA in THP1 cells stimulated by RDG-Adenovirus-GFP); type: cell-based; parameters: host or cells: THP1 cells differentiated with PMA and stimulated with RDG-Adenovirus-GFP; conditions: PMA-differentiated THP1 cells, RDG-Adenovirus-GFP at 1000 MOI; inhibition of IFNb production as marker for cGAS activity
Procedure: Cellular assay to measure cGAS activity: Use THP1 cell line from ATCC to determine inhibition of cGAS activity by test compounds in human cells. Plate cells on 96-well plates at 0.2×10^6/well and differentiate with phorbol myristate acetate (PMA) at 37° C./5% CO2. After 24 hours, replace PMA containing media with media lacking PMA and further incubate overnight. Stimulate cells were then by RDG-Adenovirus-GFP (Vector Biolabs #1768) at 1000 MOI for 4 hours prior to the addition of test compounds. After overnight incubation, transfer 10 μL of the media from each well to a new plate for IFNb analysis as a marker for cGAS activity. Measure quantification of IFNb with an IFNb AlphaLISA Detection kit (Perkin Elmer AL3133F) by mixing the acceptor beads with the cell supernatant followed by the addition of the biotinylated antibody and donor beads. Measure the relative fluorescence signal produced from the interaction of the donor and acceptor beads by a PHERAStar AlphaLISA protocol and evaluate the inhibitory effect of a compound by plotting specific inhibition of IFNb production against log concentration of the test compound. Calculate IC50 values using a 4-parameter non-linear logistic equation (y=(S0+((SInf−S0)/(1+((qAC50/x)^nHill))))).

cGAS [2] = biological target: T1, cGAS; experiment: In vitro inhibition assay of cGAS activity (cGAMP production, RapidFire mass spectrometry); type: biochemical; parameters: Insert cDNA encoding full-length of human cGAS; His6; made in house; host or cells: E. coli BL21(DE3); conditions: 10 nM recombinant human cGAS, 60 nM 75-bp dsDNA, 50 μM ATP, 50 μM GTP, 3 hrs
Procedure: Expression and Purification of Recombinant cGAS Protein: Insert cDNA encoding full-length of human cGAS into a modified bacterial expression vector containing an in-frame His6-tag. Induce the E. coli strain BL21(DE3) harboring the plasmid with 1 mM IPTG (Isopropyl β-D-1-thiogalactopyranoside) at 18° C. overnight. Purify the His6-tagged cGAS protein over HISpur Ni-NTA resin in the presence of benzonase and RNase followed by Superdex 200 size exclusion chromatography with storage buffer (50 mM Tris-HCl pH 7.5, 300 mM NaCl, 1 mM DTT, 10% glycerol).
In vitro inhibition assay of cGAS activity: Add a 5 μL mixture containing 10 mM Tris-Cl pH 7.5, 50 mM NaCl, 5 mM MgCl2, 1 mM DTT, 0.01% Triton X-100, 60 nM 75-bp dsDNA, 50 μM ATP, 50 μM GTP, 10 nM of recombinant human cGAS, and serial dilutions of a test compound in DMSO to a 384-well plate and incubate at ambient temperature for 3 hrs. Quench the reaction by the addition of 100 μL of stop solution containing 0.1% formic acid and 0.1 μM internal standard (3′3′-difluoro cGAMP). Measure the amount of cGAMP produced by RapidFire 365 mass spectrometry and evaluate inhibitory effect of a compound by plotting percent specific inhibition of cGAMP production against log concentration of the test compound. Calculate IC50 values using a 4-parameter non-linear logistic equation (y=(S0+((Sinf−S0)/(1+((qAC50/x)^nHill))))).

T1 sequence (Q8N884 whole entry): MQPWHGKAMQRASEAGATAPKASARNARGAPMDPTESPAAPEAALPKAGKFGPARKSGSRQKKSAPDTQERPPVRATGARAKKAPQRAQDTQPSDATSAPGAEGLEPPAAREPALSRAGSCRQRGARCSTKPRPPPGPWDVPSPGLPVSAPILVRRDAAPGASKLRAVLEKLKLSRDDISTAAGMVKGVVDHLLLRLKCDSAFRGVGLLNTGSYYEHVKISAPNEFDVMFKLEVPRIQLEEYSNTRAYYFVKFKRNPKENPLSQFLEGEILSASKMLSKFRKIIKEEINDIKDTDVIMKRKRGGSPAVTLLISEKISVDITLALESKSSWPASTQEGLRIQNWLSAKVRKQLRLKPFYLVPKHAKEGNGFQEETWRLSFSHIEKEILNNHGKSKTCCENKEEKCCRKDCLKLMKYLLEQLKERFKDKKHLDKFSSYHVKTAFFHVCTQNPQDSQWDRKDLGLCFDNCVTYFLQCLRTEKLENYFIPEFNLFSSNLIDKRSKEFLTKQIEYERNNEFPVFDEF

IC50 (cGAS [1]) [nM]	IC50 (cGAS [2]) [nM]	Compound
727	23.2	Cn1ncc(-c2cc(Cl)c(Cl)c3[nH]c4c(c23)CC(=O)NCC4CC(C)(C)O)n1 (centres unmarked) [Example 102, 7,8-Dichloro-5-(2-hydroxy-2-methylpropyl)-10-(2-methyl-2H-1,2,3-triazol-4-yl)-3,4,5,6-tetrahydroazepino[4,5-b]indol-2(1H)-one]
819	20.5	Cn1ncc(-c2cc(Cl)c(Cl)c3[nH]c4c(c23)CC(=O)NCC4)n1 [Example 2, 7,8-Dichloro-10-(2-methyl-2H-1,2,3-triazol-4-yl)-3,4,5,6-tetrahydroazepino[4,5-b]indol-2(1H)-one]
471	17.3	C[C@H]1C(=O)NCCc2[nH]c3c(Cl)c(Cl)cc(NCCCO)c3c21 (single isomer, unassigned) [Example 53]
≥ 10000	20200	C[C@H]1C(=O)NCC(C)(C)c2c1c1c(NC(=O)CO)cc(Cl)c(Cl)c1n2C (single isomer, unassigned) [Example 135, (R)—N-(7,8-Dichloro-1,5,5,6-tetramethyl-2-oxo-1,2,3,4,5,6-hexahydroazepino[4,5-b]indol-10-yl)-2-hydroxyacetamide or (S)—N-(7,8-Dichloro-1,5,5,6-tetramethyl-2-oxo-1,2,3,4,5,6-hexahydroazepino[4,5-b]indol-10-yl)-2-hydroxyacetamide]
2220	29.1	CC1C(=O)NCCc2[nH]c3c(Cl)c(Cl)c(F)c(NCCO)c3c21 (racemic) [Example 52, 7,8-Dichloro-9-fluoro-10-((2-hydroxyethyl)amino)-1-methyl-3,4,5,6-tetrahydroazepino[4,5-b]indol-2(1H)-one]
7260	2770	C[C@H](O)COc1cc(Cl)c(Cl)c2[nH]c3c(c12)[C@H](C)C(=O)NCC3 (single isomer, unassigned) [Example 85]
344	7.3	C[C@@H]1C(=O)NCCc2[nH]c3c(Cl)c(Cl)cc(OCCCO)c3c21 (single isomer, unassigned) [Example 14A]
1150	18	COCCOc1cc(Cl)c(Cl)c2c1c1c(n2C)CCNC(=O)C1C (centres unmarked) [Example 97, 7,8-Dichloro-10-(2-methoxyethoxy)-1,6-dimethyl-3,4,5,6-tetrahydroazepino[4,5-b]indol-2(1H)-one]
649	22.5	CC1C(=O)NCCc2c1c1c(NC(=O)CO)cc(Cl)c(Cl)c1n2C(F)F (centres unmarked) [Example 144, N-(7,8-Dichloro-6-(difluoromethyl)-1-methyl-2-oxo-1,2,3,4,5,6-hexahydroazepino[4,5-b]indol-10-yl)-2-hydroxyacetamide]
> 10000	361	COCC[C@H]1CNC(=O)[C@@H](C)c2c1[nH]c1c(Cl)c(Cl)cc(NCCO)c21 (single isomer, unassigned) [Example 174]
2790	38.9	CC1C(=O)NCCc2[nH]c3c(Cl)c(Cl)cc(NC(=O)C4CCO4)c3c21 (centres unmarked) [Example 44, N-(7,8-Dichloro-1-methyl-2-oxo-1,2,3,4,5,6-hexahydroazepino[4,5-b]indol-10-yl)oxetane-2-carboxamide]
> 10000	3440	C[C@@H]1C(=O)NCCc2[nH]c3c(Cl)c(Cl)cc(OCC(F)(F)CO)c3c21 (single isomer, unassigned) [Example 74]
> 10000	2760	C[C@@H]1C(=O)NCCc2c1c1c(NC(=O)CO)cc(Cl)c(Cl)c1n2C (single isomer, unassigned) [Example 93]
2230	46.6	CCCNc1cc(Cl)c(Cl)c2[nH]c3c(c12)C(C)C(=O)NCC3 (centres unmarked) [Example 45, 7,8-Dichloro-1-methyl-10-(propylamino)-3,4,5,6-tetrahydroazepino[4,5-b]indol-2(1H)-one]
4340	48.9	C[C@@H]1C(=O)NCCc2c1c1c(NC(=O)CO)cc(Cl)c(Cl)c1n2CC(F)(F)F (single isomer, unassigned) [Example 186, (S)—N-(7,8-Dichloro-1-methyl-2-oxo-6-(2,2,2-trifluoroethyl)-1,2,3,4,5,6-hexahydroazepino[4,5-b]indol-10-yl)-2-hydroxyacetamide or (R)—N-(7,8-Dichloro-1-methyl-2-oxo-6-(2,2,2-trifluoroethyl)-1,2,3,4,5,6-hexahydroazepino[4,5-b]indol-10-yl)-2-hydroxyacetamide]
> 10000	4740	C[C@@H]1C(=O)NCCc2[nH]c3c(Cl)c(Cl)cc(OC[C@@H](C)O)c3c21 (single isomer, unassigned) [Example 83]
755	11.2	C[C@@H]1C(=O)NCCc2[nH]c3c(Cl)c(Cl)cc(OCC(F)(F)CO)c3c21 (single isomer, unassigned) [Example 73]
914	58.1	N#CCc1cc(Cl)c(Cl)c2[nH]c3c(c12)CC(=O)NCC3 [Example 28, 2-(7,8-Dichloro-2-oxo-1,2,3,4,5,6-hexahydroazepino[4,5-b]indol-10-yl)acetonitrile]
490	8.44	C[C@H]1C(=O)NCCc2[nH]c3c(Cl)c(Cl)cc(NCC(F)(F)CO)c3c21 (single isomer, unassigned) [Example 68, (R)-7,8-Dichloro-10-((2,2-difluoro-3-hydroxypropyl)amino)-1-methyl-3,4,5,6-tetrahydroazepino[4,5-b]indol-2(1H)-one or (S)-7,8-Dichloro-10-((2,2-difluoro-3-hydroxypropyl)amino)-1-methyl-3,4,5,6-tetrahydroazepino[4,5-b]indol-2(1H)-one]
793	23.7	CC1C(=O)NCCc2[nH]c3c(Cl)c(Cl)cc(OC[C@H]4CCO4)c3c21 (stereo partly drawn) [Example 180, 7,8-Dichloro-1-methyl-10-(((R)-oxetan-2-yl)methoxy)-3,4,5,6-tetrahydroazepino[4,5-b]indol-2(1H)-one]
> 10000	5.12	Cn1ncc(-c2cc(Cl)c(Cl)c3[nH]c4c(c23)CC(=O)NCC4CC(=O)O)n1 (racemic) [Example 5, 2-(7,8-Dichloro-10-(2-methyl-2H-1,2,3-triazol-4-yl)-2-oxo-1,2,3,4,5,6-hexahydroazepino[4,5-b]indol-5-yl)acetic acid]
1320	18.6	CN(C)C(=O)CC1CNC(=O)Cc2c1[nH]c1c(Cl)c(Cl)cc(CC#N)c21 (centres unmarked) [Example 117, 2-(7,8-Dichloro-10-(cyanomethyl)-2-oxo-1,2,3,4,5,6-hexahydroazepino[4,5-b]indol-5-yl)-N,N-dimethylacetamide]
1430	44.2	C[C@H](O)COc1cc(Cl)c(Cl)c2[nH]c3c(c12)[C@H](C)C(=O)NCC3 (single isomer, unassigned) [Example 84]
3570	26.2	CCOC(=O)CC1CNC(=O)Cc2c1[nH]c1c(Cl)c(Cl)cc(-c3cnn(C)n3)c21 (racemic) [Example 4, Ethyl 2-(7,8-dichloro-10-(2-methyl-2H-1,2,3-triazol-4-yl)-2-oxo-1,2,3,4,5,6-hexahydroazepino[4,5-b]indol-5-yl)acetate]

Compound	IC50 (cGAS [1]) [nM]	IC50 (cGAS [2]) [nM]
C[C@@H]1CNC(=O)[C@@H](C)c2c1[nH]c1c(Cl)c(Cl)cc(CC#N)c21 (single isomer, unassigned) [Example 150]	2120	25.9
C[C@@H]1C(=O)NCCc2[nH]c3c(Cl)c(Cl)cc(N[C@H]4CCOC4)c3c21 (single isomer, unassigned) [Example 63]	> 10000	1670
C[C@@H]1C(=O)NCCc2[nH]c3c(Cl)c(Cl)cc(OCC#N)c3c21 (single isomer, unassigned) [Example 16A]	871	2.18
CC(C)(O)C[C@@H]1CNC(=O)Cc2c1[nH]c1c(Cl)c(Cl)cc(CC#N)c21 (single isomer, unassigned) [Example 107]	649	12.5

Source: patent US20240246979A1, “cGAS INHIBITORS” (Eli Lilly and Company, priority 2022, published 2024)
